Measurements: US9902702B2, “Spirocycloheptanes as inhibitors of rock” (BRISTOL-MYERS SQUIBB COMPANY, priority 2014, dated 2018)

Each molecule was assayed against ROCK2 (Homo sapiens, UniProt O75116) (assay: ROCK assay: phosphorylation of FITC peptide substrate, LABCHIP 3000 mobility shift). Settings: 5 μM ATP, 1.5 μM peptide substrate; read-out: ROCK2 Activity (ROCK IC50 range).
Sequence of ROCK2 (O75116 whole entry, species assumed): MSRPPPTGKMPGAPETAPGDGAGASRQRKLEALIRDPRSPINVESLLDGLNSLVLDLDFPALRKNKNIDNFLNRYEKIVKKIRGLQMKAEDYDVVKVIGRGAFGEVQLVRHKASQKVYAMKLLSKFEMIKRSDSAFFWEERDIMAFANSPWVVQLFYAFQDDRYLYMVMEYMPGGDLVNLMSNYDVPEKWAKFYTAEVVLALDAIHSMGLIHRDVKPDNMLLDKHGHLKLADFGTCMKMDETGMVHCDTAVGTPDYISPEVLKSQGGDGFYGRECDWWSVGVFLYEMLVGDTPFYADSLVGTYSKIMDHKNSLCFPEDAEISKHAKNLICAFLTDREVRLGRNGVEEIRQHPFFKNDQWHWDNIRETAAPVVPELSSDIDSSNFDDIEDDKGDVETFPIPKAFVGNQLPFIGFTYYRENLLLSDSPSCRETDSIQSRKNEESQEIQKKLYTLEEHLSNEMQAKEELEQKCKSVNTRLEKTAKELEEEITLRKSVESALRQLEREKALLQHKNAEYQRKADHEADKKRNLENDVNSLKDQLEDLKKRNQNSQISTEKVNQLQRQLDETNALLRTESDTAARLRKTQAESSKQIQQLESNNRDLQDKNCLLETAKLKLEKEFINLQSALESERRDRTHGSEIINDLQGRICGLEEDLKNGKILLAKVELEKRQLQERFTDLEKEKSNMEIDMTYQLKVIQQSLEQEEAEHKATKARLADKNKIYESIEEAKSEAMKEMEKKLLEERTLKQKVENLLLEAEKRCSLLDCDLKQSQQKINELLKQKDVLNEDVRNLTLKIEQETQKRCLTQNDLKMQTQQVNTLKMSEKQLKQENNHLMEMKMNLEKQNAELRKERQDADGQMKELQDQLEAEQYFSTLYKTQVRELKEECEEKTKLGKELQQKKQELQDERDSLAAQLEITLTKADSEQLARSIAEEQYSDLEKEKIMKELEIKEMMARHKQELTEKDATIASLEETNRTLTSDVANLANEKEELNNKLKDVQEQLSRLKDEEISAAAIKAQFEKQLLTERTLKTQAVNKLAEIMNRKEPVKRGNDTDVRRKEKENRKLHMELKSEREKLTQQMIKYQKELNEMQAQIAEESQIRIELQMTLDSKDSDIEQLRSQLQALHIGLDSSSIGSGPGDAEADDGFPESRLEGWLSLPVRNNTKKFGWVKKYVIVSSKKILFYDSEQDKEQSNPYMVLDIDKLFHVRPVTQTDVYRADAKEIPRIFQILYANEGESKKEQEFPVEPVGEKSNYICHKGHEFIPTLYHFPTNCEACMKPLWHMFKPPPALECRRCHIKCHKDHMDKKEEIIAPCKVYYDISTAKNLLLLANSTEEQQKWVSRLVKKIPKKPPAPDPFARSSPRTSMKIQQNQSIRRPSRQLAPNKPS
Assay type: biochemical
Procedure, shortened: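 Rho kinase variant phosphorylates 1.5 μM FITC-AHA-AKRRRLSSLRA-OH with 5 μM ATP in 20 mM HEPES pH 7.5, 20 mM MgCl2, 0.015% Brij-35, 4 mM DTT, DMSO <2%. EDTA stops the reaction, and phospho and non-phospho peptides are resolved by LabChip 3000 mobility shift. IC50 from dose-response curve fit.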
`O=C(NC1CC2(C1)CC(c1n[nH]c(=O)c3ccccc13)C2)c1nn(-c2cccc(Cl)c2)c2c1CCNC2=O` [Example 288, 1-(3-chlorophenyl)-7-oxo-N-((aR)-6-(4-oxo-3,4-dihydrophthalazin-1-yl)spiro[3.3]heptan-2-yl)-4,5,6,7-tetrahydro-1H-pyrazolo[3,4-c] pyridine-3-carboxamide] was tested, and the IC50 was 15.1 to 100 nM.
`COc1ccc(-n2nc(C(=O)NC3CC4(C3)CC(c3n[nH]c(=O)c5ccccc35)C4)c3c2C(=O)NCC3)cc1` [Example 289, 1-(4-methoxyphenyl)-7-oxo-N-((aR)-6-(4-oxo-3,4-dihydrophthalazin-1-yl)spiro[3.3]heptan-2-yl)-4,5,6,7-tetrahydro-1H-pyrazolo[3,4-c]pyridine-3-carboxamide] was tested, and the IC50 was 15.1 to 100 nM.
`O=C(NC1CC2(C1)CC(c1n[nH]c(=O)c3ccccc13)C2)c1noc2ccc(Cl)cc12` [Example 290, 5-chloro-N-((aR)-6-(4-oxo-3,4-dihydrophthalazin-1-yl)spiro[3.3]heptan-2-yl)benzo[d]isoxazole-3-carboxamide] was tested, and the IC50 was 2.01 to 5 nM.
Work on `CC(=O)Nc1ccc2c(C(=O)NC3CC4(C3)CC(c3n[nH]c(=O)c5ccccc35)C4)noc2c1` [Example 291, 6-acetamido-N-((aR)-6-(4-oxo-3,4-dihydrophthalazin-1-yl)spiro[3.3]heptan-2-yl)benzo[d]isoxazole-3-carboxamide] yielded an IC50 of 5.1 to 15 nM.
Work on `[H][C@]1(c2n[nH]c(=O)c3ccccc32)C[C@@]2(C[C@H](NC(=O)c3ncn4ccccc34)C2)C1` (stereo partly drawn) [Example 292, N-((aR)-6-(4-oxo-3,4-dihydrophthalazin-1-yl)spiro[3.3]heptan-2-yl)imidazo[1,5-a]pyridine-1-carboxamide] yielded an IC50 of 15.1 to 100 nM.
With `[H][C@]1(c2n[nH]c(=O)c3ccccc32)C[C@@]2(C[C@H](NC(=O)c3cc4cc(OC)ccc4n3C)C2)C1` (stereo partly drawn) [Example 293, 5-methoxy-1-methyl-N-((aR)-6-(4-oxo-3,4-dihydrophthalazin-1-yl)spiro[3.3]heptan-2-yl)-1H-indole-2-carboxamide] the IC50 was 15.1 to 100 nM.
Work on `[H][C@]1(c2n[nH]c(=O)c3ccccc32)C[C@@]2(C[C@H](NC(=O)c3cc4ccccc4n3C)C2)C1` (stereo partly drawn) [Example 294, 1-methyl-N-((aR)-6-(4-oxo-3,4-dihydrophthalazin-1-yl)spiro[3.3]heptan-2-yl)-1H-indole-2-carboxamide] yielded an IC50 of 5.1 to 15 nM.
In the case of `[H][C@]1(c2n[nH]c(=O)c3ccccc32)C[C@@]2(C[C@H](NC(=O)c3cc4cccc(OC)c4[nH]3)C2)C1` (stereo partly drawn) [Example 295, 7-methoxy-N-((aR)-6-(4-oxo-3,4-dihydrophthalazin-1-yl)spiro[3.3]heptan-2-yl)-1H-indole-2-carboxamide], the IC50 is reported as 5.1 to 15 nM.
`[H][C@]1(c2n[nH]c(=O)c3ccccc32)C[C@@]2(C[C@H](NC(=O)c3nc4c(s3)CN(C)CC4)C2)C1` (stereo partly drawn) [Example 296, 5-methyl-N-((aR)-6-(4-oxo-3,4-dihydrophthalazin-1-yl)spiro[3.3]heptan-2-yl)-4,5,6,7-tetrahydrothiazolo [5,4-c]pyridine-2-carboxamide] gave an IC50 of 100 to 2100 nM.
`[H][C@]1(c2n[nH]c(=O)c3ccccc32)C[C@@]2(C[C@H](NC(=O)c3cc4c(Cl)cccc4n3C)C2)C1` (stereo partly drawn) [Example 297, 4-chloro-1-methyl-N-((aR)-6-(4-oxo-3,4-dihydrophthalazin-1-yl)spiro[3.3]heptan-2-yl)-1H-indole-2-carboxamide] gave an IC50 of 2.01 to 5 nM.
For `[H][C@]1(c2n[nH]c(=O)c3ccccc32)C[C@@]2(C[C@H](NC(=O)c3cc4ccccc4[nH]3)C2)C1` (stereo partly drawn) [Example 298, N-((aR)-6-(4-oxo-3,4-dihydrophthalazin-1-yl)spiro[3.3]heptan-2-yl)-1H-indole-2-carboxamide], the IC50 was 5.1 to 15 nM.
`[H][C@]1(c2n[nH]c(=O)c3ccccc32)C[C@]2(C[C@@H](NC(=O)c3c(C)nc4ccccn34)C2)C1` (stereo partly drawn) [Example 299, 2-methyl-N-((aR)-6-(4-oxo-3,4-dihydrophthalazin-1-yl)spiro[3.3]heptan-2-yl)imidazo[1,2-a]pyridine-3-carboxamide] showed an IC50 of 15.1 to 100 nM.
